Experimental data from patent publication US10633419B2, “Immunomodulators” (BRISTOL-MYERS SQUIBB COMPANY, priority 2014, dated 2020).
Positions of bridges follow the written chain, without caps; N, C: chain ends. Non-standard residues stand in square brackets, D forms with d. Residues, ends and D or L forms follow the SMILES beside them. *: point of attachment. X6 = O=C(O)CCCCCCCCCCCCCCCCC(=O)N[C@@H](CCC(=O)NCCCOCCOCCOCCCN*)C(=O)O; X18 = O=C(O)CCCCCCCCCCCCCCC(=O)N[C@@H](CC(=O)NCCCOCCOCCOCCCN*)C(=O)O; Ala(1-CH2COOH-inden-3-yl) = N[C@@H](CC1=CC(CC(=O)O)c2ccccc21)C(=O)O; Trp(1-CH2COOH) = N[C@@H](Cc1cn(CC(=O)O)c2ccccc12)C(=O)O; d(cisHyp) = O=C(O)[C@H]1C[C@@H](O)CN1; NH(CH2)12COOH = O=C(O)CCCCCCCCCCCCN*; Bta = N[C@@H](Cc1csc2ccccc12)C(=O)O; PEG6 = NCCOCCOCCOCCOCCOCCOCCC(=O)O; Hyp = O=C(O)[C@@H]1C[C@@H](O)CN1; Myristoyl = CCCCCCCCCCCCCC(=O)*; dHyp = O=C(O)[C@H]1C[C@H](O)CN1; Undecanoyl = CCCCCCCCCCC(=O)*; NMeNle = CCCC[C@H](NC)C(=O)O; NMeA = CN[C@@H](C)C(=O)O; Pra = C#CC[C@H](N)C(=O)O; Aun = NCCCCCCCCCCC(=O)O; Dab = NCC[C@H](N)C(=O)O; Dap = NC[C@H](N)C(=O)O

These molecules were tested against T1, PD-L1 (Homo sapiens, UniProt Q9NZQ7) (assay: PD-1/PD-L1 Homogenous Time-Resolved Fluorescence (HTRF) binding assay (PD-1-Ig/PD-L1-His)). Settings: inhibition of PD-1-Ig binding to PD-L1-TVMV-His; value given as number; read-out: HTRF IC50.
T1 construct: hPDL1(19-239)-TVMV-His; made in house; host or cells: HEK293T
In short: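 HTRF competition in dPBS with 0.1% BSA and 0.05% Tween-20: 20 nM PD-1-Ig added after 15 min compound pre-incubation with 10 nM PD-L1-His, then another 15 min. Signal (665/620 nm) after 30 min with APC anti-His (20 nM) and Eu anti-Ig (1 nM).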

T1 sequence (Q9NZQ7 with tags, fused parts or gaps): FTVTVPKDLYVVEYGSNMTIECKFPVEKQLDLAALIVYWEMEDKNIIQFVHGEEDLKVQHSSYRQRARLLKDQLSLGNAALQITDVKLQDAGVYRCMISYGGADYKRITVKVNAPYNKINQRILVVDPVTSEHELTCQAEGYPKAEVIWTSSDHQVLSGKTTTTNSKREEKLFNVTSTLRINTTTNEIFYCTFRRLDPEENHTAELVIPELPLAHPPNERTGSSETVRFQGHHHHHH

Row | IC50 [nM] | Compound
1 | 9.2 | CCCC[C@H]1C(=O)N(C)[C@@H](CCCC)C(=O)N[C@@H](CCCNC(=N)N)C(=O)N[C@H](C(=O)NCC(=O)NCCCCCCCCCCC(=O)NCCCCCCCCCCC(=O)O)CSCC(=O)N[C@@H](Cc2ccc(O)cc2)C(=O)N(C)[C@@H](C)C(=O)N[C@@H](CC(N)=O)C(=O)N2CCC[C@H]2C(=O)N[C@@H](Cc2cnc[nH]2)C(=O)N[C@@H](CC(C)C)C(=O)N2C[C@H](O)C[C@H]2C(=O)N[C@@H](Cc2c[nH]c3ccccc23)C(=O)N[C@@H](CO)C(=O)N[C@@H](Cc2c[nH]c3ccccc23)C(=O)N1C [Example 11063] ({CH2CO}-Y[NMeA]NPHL[Hyp]WSW[NMeNle][NMeNle]RCG[Aun][Aun]-OH; thioether N-14)
2 | 3 | CCCC[C@H]1C(=O)N(C)[C@@H](CCCC)C(=O)N[C@@H](CC(C)C)C(=O)N[C@H](C(=O)NCC(=O)N[C@@H](CC(=O)NCCCOCCOCCOCCCNC(=O)CC[C@H](NC(=O)CCCCCCCCCCCCCCCCC(=O)O)C(=O)O)C(=O)O)CSCC(=O)N[C@@H](Cc2ccc(O)cc2)C(=O)N(C)[C@@H](C)C(=O)N[C@@H](CC(N)=O)C(=O)N2CCC[C@H]2C(=O)N[C@@H](Cc2c[nH]cn2)C(=O)N[C@@H](CCC(=O)O)C(=O)N2C[C@H](O)C[C@H]2C(=O)N[C@@H](Cc2c[nH]c3ccccc23)C(=O)N[C@@H](CCN)C(=O)N[C@@H](Cc2cn(CC(=O)O)c3ccccc23)C(=O)N1C [Example 11179] ({CH2CO}-Y[NMeA]NPHE[Hyp]W[Dab][Trp(1-CH2COOH)][NMeNle][NMeNle]LCGD(X6)-OH; thioether N-14)
3 | 456 | CCCCCCCCCCC(=O)NCCCC[C@H](NC(=O)CCOCCOCCOCCOCCOCCOCCNC(=O)[C@@H]1CSCC(=O)N[C@@H](Cc2ccc(O)cc2)C(=O)N(C)[C@@H](C)C(=O)N[C@@H](CC(N)=O)C(=O)N2CCC[C@H]2C(=O)N[C@@H](CN)C(=O)N[C@@H](CCC(N)=O)C(=O)N2C[C@H](O)C[C@@H]2C(=O)N[C@@H](Cc2c[nH]c3ccccc23)C(=O)N[C@@H](CO)C(=O)N[C@@H](Cc2cn(CC(=O)O)c3ccccc23)C(=O)N(C)[C@@H](CCCC)C(=O)N(C)[C@@H](CCCC)C(=O)N[C@@H](CC(C)C)C(=O)N1)C(=O)O [Example 11062] ({CH2CO}-Y[NMeA]NP[Dap]Q[d(cisHyp)]WS[Trp(1-CH2COOH)][NMeNle][NMeNle]LC[PEG6]K(Undecanoyl)-OH; thioether N-14)

Same assay, conditions: inhibition of PD-1-Ig binding to PD-L1-TVMV-His; value given as range class; read-out: HTRF IC50

Row | IC50 [nM] | Compound
4 | 10 to 99 | CCCC[C@H]1C(=O)N2C[C@H](O)C[C@@H]2C(=O)N[C@@H](CC(=O)O)C(=O)N[C@@H](C(C)C)C(=O)N(C)[C@@H](Cc2ccccc2)C(=O)N[C@@H](CC(=O)O)C(=O)N2CCC[C@@H]2C(=O)N[C@@H](Cc2c[nH]c3ccccc23)C(=O)N[C@@H](Cc2ccc(O)cc2)C(=O)N[C@@H](CC(C)C)C(=O)N[C@H](C(=O)NCC(=O)N[C@@H](Cc2cn(CC[C@H](NC(=O)CCCCCCCCCCCCCCC(=O)O)C(=O)O)nn2)C(N)=O)CSCC(=O)N[C@@H](Cc2cc(F)c(F)c(F)c2)C(=O)N(C)[C@@H](Cc2ccccc2)C(=O)N1C [Example 14074]
5 | 10 to 99 | CCCC[C@H]1C(=O)N(C)[C@@H](CCCC)C(=O)N[C@@H](CC(C)C)C(=O)N[C@H](C(=O)NCC(=O)NCC(=O)N[C@@H](CC(=O)O)C(=O)NCCCCCCCCCCCCC(=O)O)CSCC(=O)N[C@@H](Cc2ccc(O)cc2)C(=O)N(C)[C@@H](C)C(=O)N[C@@H](CC(N)=O)C(=O)N2CCC[C@H]2C(=O)N[C@@H](CN)C(=O)N[C@@H](CC(C)C)C(=O)N2C[C@H](O)C[C@H]2C(=O)N[C@@H](Cc2c[nH]c3ccccc23)C(=O)N[C@@H](CCN)C(=O)N[C@@H](Cc2cn(CC(=O)O)c3ccccc23)C(=O)N1C [Example 11221] ({CH2CO}-Y[NMeA]NP[Dap]L[Hyp]W[Dab][Trp(1-CH2COOH)][NMeNle][NMeNle]LCGGD-{NH(CH2)12COOH}; thioether N-14)
6 | 10 to 99 | CCCC[C@H]1C(=O)N(C)[C@@H](CCCC)C(=O)N[C@@H](CC(C)C)C(=O)N[C@H](C(=O)NCCCCCCCCCCC(=O)O)CSCC(=O)N[C@@H](Cc2ccc(O)cc2)C(=O)N(C)[C@@H](C)C(=O)N[C@@H](CC(N)=O)C(=O)N2CCC[C@H]2C(=O)N[C@@H](Cc2cnc[nH]2)C(=O)N[C@@H](CCC(=O)O)C(=O)N2C[C@H](O)C[C@H]2C(=O)N[C@@H](Cc2c[nH]c3ccccc23)C(=O)N[C@@H](CCN)C(=O)N[C@@H](CC2=CC(CC(=O)O)c3ccccc32)C(=O)N1C (stereo partly shown) [Example 11076] ({CH2CO}-Y[NMeA]NPHE[Hyp]W[Dab][Ala(1-CH2COOH-inden-3-yl)][NMeNle][NMeNle]LC[Aun]-OH; thioether N-14)
7 | 100 to 1600 | CCCCCCCCCCCCCC(=O)NCCCC[C@H](NC(=O)[C@H](CC(=O)O)NC(=O)[C@H](CC(=O)O)NC(=O)CNC(=O)[C@@H]1CSCC(=O)N[C@@H](Cc2ccc(O)cc2)C(=O)N(C)[C@@H](C)C(=O)N[C@@H](CC(=O)O)C(=O)N2CCC[C@H]2C(=O)N[C@@H](Cc2cnc[nH]2)C(=O)N[C@@H](CC(C)C)C(=O)N2C[C@H](O)C[C@H]2C(=O)N[C@@H](Cc2c[nH]c3ccccc23)C(=O)N[C@@H](CO)C(=O)N[C@@H](Cc2c[nH]c3ccccc23)C(=O)N(C)[C@@H](CCCC)C(=O)N(C)[C@@H](CCCC)C(=O)N[C@@H](CCCNC(=N)N)C(=O)N1)C(N)=O [Example 11014] ({CH2CO}-Y[NMeA]DPHL[Hyp]WSW[NMeNle][NMeNle]RCGDDK(Myristoyl)-NH2; thioether N-14)
8 | 10 to 99 | CCCC[C@H]1C(=O)N(C)[C@@H](CCCC)C(=O)N[C@@H](CCC(=O)O)C(=O)N[C@H](C(=O)NCC(=O)N[C@@H](Cc2cn(CC[C@H](NC(=O)CCCCCCCCCCCCCCCCC(=O)O)C(=O)O)nn2)C(=O)O)CSCC(=O)N[C@@H](Cc2ccc(O)cc2)C(=O)N(C)[C@@H](C)C(=O)N[C@@H](CC(=O)O)C(=O)N2CCC[C@H]2C(=O)N[C@@H](CN)C(=O)N[C@@H](CC(C)C)C(=O)N2C[C@H](O)C[C@H]2C(=O)N[C@@H](Cc2c[nH]c3ccccc23)C(=O)N[C@@H](CCN)C(=O)N[C@@H](Cc2cn(CC(=O)O)c3ccccc23)C(=O)N1C [Example 13126]
9 | 0.3 to 9.9 | CCCC[C@H]1C(=O)N(C)[C@@H](CCCC)C(=O)N[C@@H](CC(C)C)C(=O)N[C@@H](C(=O)NCC(=O)N[C@@H](CC(=O)O)C(=O)NCCCOCCOCCOCCCNC(=O)C[C@H](NC(=O)CCCCCCCCCCCCCCC(=O)O)C(=O)O)CSCC(=O)N[C@@H](Cc2ccc(O)cc2)C(=O)N(C)[C@@H](C)C(=O)N[C@@H](CC(N)=O)C(=O)N2CCC[C@@H]2C(=O)N[C@@H](CN)C(=O)N[C@@H](CC(C)C)C(=O)N2C[C@@H](O)C[C@@H]2C(=O)N[C@@H](Cc2c[nH]c3ccccc23)C(=O)N[C@@H](CCN)C(=O)N[C@@H](Cc2cn(CC(=O)O)c3ccccc23)C(=O)N1C [Example 11238] ({CH2CO}-Y[NMeA]N[dP][Dap]L[dHyp]W[Dab][Trp(1-CH2COOH)][NMeNle][NMeNle]L[dC]GD-X18; thioether N-14)
10 | 10 to 99 | CCCC[C@H]1C(=O)N(C)[C@@H](CCCC)C(=O)N[C@@H](CCC(=O)O)C(=O)N[C@H](C(=O)NCC(=O)N[C@@H](Cc2cn(CC[C@H](NC(=O)CCCCCCCCCCCCCCC(=O)O)C(=O)O)nn2)C(=O)NCC(N)=O)CSCC(=O)N[C@@H](Cc2ccc(O)cc2)C(=O)N(C)[C@@H](C)C(=O)N[C@@H](CC(=O)O)C(=O)N2CCC[C@H]2C(=O)N[C@@H](Cc2c[nH]cn2)C(=O)N[C@@H](CCC(N)=O)C(=O)N2C[C@H](O)C[C@H]2C(=O)N[C@@H](Cc2c[nH]c3ccccc23)C(=O)N[C@@H](CO)C(=O)N[C@@H](Cc2c[nH]c3ccccc23)C(=O)N1C [Example 14069]

Second part, the molecule before the results:

Row | Compound | IC50 [nM]
11 | CCCC[C@H]1C(=O)N(C)[C@@H](CCCC)C(=O)N[C@@H](CC(C)C)C(=O)N[C@H](C(=O)NCC(=O)N[C@@H](CC(=O)NCCCOCCOCCOCCCNC(=O)CC[C@H](NC(=O)CCCCCCCCCCCCCCCCC(=O)O)C(=O)O)C(=O)O)CSCC(=O)N[C@@H](Cc2ccc(O)cc2)C(=O)N(C)[C@@H](C)C(=O)N[C@@H](CC(=O)O)C(=O)N2CCC[C@H]2C(=O)N[C@@H](CN)C(=O)N[C@@H](CCC(=O)O)C(=O)N2C[C@H](O)C[C@H]2C(=O)N[C@@H](Cc2c[nH]c3ccccc23)C(=O)N[C@@H](CCN)C(=O)N[C@@H](Cc2cn(CC(=O)O)c3ccccc23)C(=O)N1C [Example 11178] ({CH2CO}-Y[NMeA]DP[Dap]E[Hyp]W[Dab][Trp(1-CH2COOH)][NMeNle][NMeNle]LCGD(X6)-OH; thioether N-14) | 0.3 to 9.9
12 | C#CC[C@H](NC(=O)CNC(=O)[C@@H]1CSCC(=O)N[C@@H](Cc2ccc(O)cc2)C(=O)N(C)[C@@H](C)C(=O)N[C@@H](CC(N)=O)C(=O)N2CCC[C@H]2C(=O)N[C@@H](CN)C(=O)N[C@@H](CC(C)C)C(=O)N2C[C@H](O)C[C@H]2C(=O)N[C@@H](Cc2c[nH]c3ccccc23)C(=O)N[C@@H](CCN)C(=O)N[C@@H](Cc2cn(CC(=O)O)c3ccccc23)C(=O)N(C)[C@@H](CCCC)C(=O)N(C)[C@@H](CCCC)C(=O)N[C@@H](CC(C)C)C(=O)N1)C(N)=O [INT 1300W] ({CH2CO}-Y[NMeA]NP[Dap]L[Hyp]W[Dab][Trp(1-CH2COOH)][NMeNle][NMeNle]LCG[Pra]-NH2; thioether N-14) | 10 to 99
13 | C#CC[C@H](NC(=O)CNC(=O)[C@@H]1CSCC(=O)N[C@@H](Cc2ccc(O)cc2)C(=O)N(C)[C@@H](C)C(=O)N[C@@H](CC(N)=O)C(=O)N2CCC[C@H]2C(=O)N[C@@H](CN)C(=O)N[C@@H](CC(C)C)C(=O)N2C[C@H](O)C[C@H]2C(=O)N[C@@H](Cc2c[nH]c3ccccc23)C(=O)N[C@@H](CO)C(=O)N[C@@H](Cc2csc3ccccc23)C(=O)N(C)[C@@H](CCCC)C(=O)N(C)[C@@H](CCCC)C(=O)N[C@@H](CCCNC(=N)N)C(=O)N1)C(N)=O [INT 1300A] ({CH2CO}-Y[NMeA]NP[Dap]L[Hyp]WS[Bta][NMeNle][NMeNle]RCG[Pra]-NH2; thioether N-14) | 0.3 to 9.9
